From ChEMBL document CHEMBL1124295, “Synthesis and oral antiallergic activity of carboxylic acids derived from imidazo[2,1-c][1,4]benzoxazines, imidazo[1,2-a]quinolines, imidazo[1,2-a]quinoxalines, imidazo[1,2-a]quinoxalinones, pyrrolo[1,2-a]quinoxalinones, pyrrolo[2,3-a]quinoxalinones, and imidazo[2,1-b]benzothiazoles” (1988)
The source made the active and inactive calls. The calls are words filed in the database; no cut-off is given here.

How the values were obtained:
Rattus norvegicus [1] = assay: Inhibition of the IgE-mediated passive cutaneous anaphylaxis (PCA) reaction in rat after oral administration; NA means inactive at 1 and 10 mg/Kg; format: functional, organism-based
Rattus norvegicus [2] = assay: Inhibition of the IgE-mediated passive cutaneous anaphylaxis (PCA) reaction in rat after intravenous administration; Range 0.43-0.74; format: functional
Rattus norvegicus [3] = assay: Inhibition of the IgE-mediated passive cutaneous anaphylaxis (PCA) reaction in rat after intravenous administration; Range 0.052-0.43; format: functional
Rattus norvegicus [4] = assay: Inhibition of the IgE-mediated passive cutaneous anaphylaxis (PCA) reaction in rat after oral administration; Range 0.031-0.15; format: functional
Rattus norvegicus [5] = assay: Inhibition of the IgE-mediated passive cutaneous anaphylaxis (PCA) reaction in rat after intravenous administration; Range 0.13-0.26; format: functional
Rattus norvegicus [6] = assay: Inhibition of the IgE-mediated passive cutaneous anaphylaxis (PCA) reaction in rat after oral administration; Range 0.06-0.199; format: functional
Rattus norvegicus [7] = assay: Inhibition of the IgE-mediated passive cutaneous anaphylaxis (PCA) reaction in rat after intravenous administration; Range 0.013-0.023; format: functional
Rattus norvegicus [8] = assay: Inhibition of the IgE-mediated passive cutaneous anaphylaxis (PCA) reaction in rat after intravenous administration; Range 0.18-0.41; format: functional
Rattus norvegicus [9] = assay: Inhibition of the IgE-mediated passive cutaneous anaphylaxis (PCA) reaction in rat after intravenous administration; Range 2.91-4.95; format: functional
Rattus norvegicus [10] = assay: Inhibition of the IgE-mediated passive cutaneous anaphylaxis (PCA) reaction in rat after oral administration; Range 0.74-2.02; format: functional
Rattus norvegicus [11] = assay: Inhibition of the IgE-mediated passive cutaneous anaphylaxis (PCA) reaction in rat after intravenous administration; Range 0.22-0.38; format: functional
Rattus norvegicus [12] = assay: Inhibition of the IgE-mediated passive cutaneous anaphylaxis (PCA) reaction in rat after intravenous administration; Range 0.06-0.22; format: functional
Rattus norvegicus [13] = assay: Inhibition of the IgE-mediated passive cutaneous anaphylaxis (PCA) reaction in rat after oral administration; Range 0.21-7.6; format: functional
Rattus norvegicus [14] = assay: Inhibition of the IgE-mediated passive cutaneous anaphylaxis (PCA) reaction in rat after oral administration; Range 0.4-2.34; format: functional
Rattus norvegicus [15] = assay: Inhibition of the IgE-mediated passive cutaneous anaphylaxis (PCA) reaction in rat after oral administration; Range 0.65-6.05; format: functional
Rattus norvegicus [16] = assay: Inhibition of the IgE-mediated passive cutaneous anaphylaxis (PCA) reaction in rat after intravenous administration; Range 0.058-0.12; format: functional
Rattus norvegicus [17] = assay: Inhibition of the IgE-mediated passive cutaneous anaphylaxis (PCA) reaction in rat after oral administration; Inactive(45% inhibition at 20 mg/kg); format: functional
Rattus norvegicus [18] = assay: Inhibition of the IgE-mediated passive cutaneous anaphylaxis (PCA) reaction in rat after intravenous administration; Range 0.021-0.03; format: functional
Rattus norvegicus [19] = assay: Inhibition of the IgE-mediated passive cutaneous anaphylaxis (PCA) reaction in rat after oral administration; Inactive(50% inhibition at 10 mg/kg); format: functional
Rattus norvegicus [20] = assay: Inhibition of the IgE-mediated passive cutaneous anaphylaxis (PCA) reaction in rat after oral administration; Range 0.29-6.49; format: functional
Rattus norvegicus [21] = assay: Inhibition of the IgE-mediated passive cutaneous anaphylaxis (PCA) reaction in rat after intravenous administration; Range 0.05-0.11; format: functional
Rattus norvegicus [22] = assay: Inhibition of the IgE-mediated passive cutaneous anaphylaxis (PCA) reaction in rat after oral administration; Range 0.07-0.03; format: functional
Rattus norvegicus [23] = assay: Inhibition of the IgE-mediated passive cutaneous anaphylaxis (PCA) reaction in rat after intravenous administration; Range 0.004-0.006; format: functional
Rattus norvegicus [24] = assay: Inhibition of the IgE-mediated passive cutaneous anaphylaxis (PCA) reaction in rat after intravenous administration; Range 0.007-0.049; format: functional
Rattus norvegicus [25] = assay: Inhibition of the IgE-mediated passive cutaneous anaphylaxis (PCA) reaction in rat after oral administration; Range 0.07-22.7; format: functional
Rattus norvegicus [26] = assay: Inhibition of the IgE-mediated passive cutaneous anaphylaxis (PCA) reaction in rat after intravenous administration; Range 0.19-0.59; format: functional
Rattus norvegicus [27] = assay: Inhibition of the IgE-mediated passive cutaneous anaphylaxis (PCA) reaction in rat after intravenous administration; Range 0.24-0.39; format: functional
Rattus norvegicus [28] = assay: Inhibition of the IgE-mediated passive cutaneous anaphylaxis (PCA) reaction in rat after oral administration; Range 0.29-0.4; format: functional
Rattus norvegicus [29] = assay: Inhibition of the IgE-mediated passive cutaneous anaphylaxis (PCA) reaction in rat after oral administration; Range 0.07-0.4; format: functional
Rattus norvegicus [30] = assay: Inhibition of the IgE-mediated passive cutaneous anaphylaxis (PCA) reaction in rat after intravenous administration; Range 0.021-0.033; format: functional
Rattus norvegicus [31] = assay: Inhibition of the IgE-mediated passive cutaneous anaphylaxis (PCA) reaction in rat after oral administration; Range 0.025-0.282; format: functional
Rattus norvegicus [32] = assay: Inhibition of the IgE-mediated passive cutaneous anaphylaxis (PCA) reaction in rat after intravenous administration; Range 0.005-0.033; format: functional
Rattus norvegicus [33] = assay: Inhibition of the IgE-mediated passive cutaneous anaphylaxis (PCA) reaction in rat after oral administration; Range 1.88-2.85; format: functional
Rattus norvegicus [34] = assay: Inhibition of the IgE-mediated passive cutaneous anaphylaxis (PCA) reaction in rat after oral administration of 10 mg/Kg of compound; format: functional
Rattus norvegicus [35] = assay: Inhibition of the IgE-mediated passive cutaneous anaphylaxis (PCA) reaction in rat after oral administration; Range 1.22-2.52; format: functional
Rattus norvegicus [36] = assay: Inhibition of the IgE-mediated passive cutaneous anaphylaxis (PCA) reaction in rat after intravenous administration; […]; format: functional
Rattus norvegicus [37] = assay: Inhibition of the IgE-mediated passive cutaneous anaphylaxis (PCA) reaction in rat after oral administration; Range 0.021-0.089; format: functional
Rattus norvegicus [38] = assay: Inhibition of the IgE-mediated passive cutaneous anaphylaxis (PCA) reaction in rat after intravenous administration; Range 0.066-0.453; format: functional

`Nc1nnnn1C(=O)c1cn2c(n1)COc1ccccc1-2` was tested, and the ED50 (Rattus norvegicus [1]) was “inactive” and the ED50 (Rattus norvegicus [2]) was 0.58 mg/kg.

For `O=Cc1cn2c(cnc3ccccc32)n1`, the ED50 (Rattus norvegicus [3]) was 0.137 mg/kg and the ED50 (Rattus norvegicus [4]) was 0.073 mg/kg.

In the case of `CCn1c(=O)c2cc(C(=O)Nc3nn[nH]n3)cn2c2ccccc21`, the ED50 (Rattus norvegicus [5]) is reported as 0.18 mg/kg.

With `CCCCn1c(=O)c2cc(C(=O)O)cn2c2ccc(Cl)cc21` the ED50 (Rattus norvegicus [6]) was 0.114 mg/kg and the ED50 (Rattus norvegicus [7]) was 0.019 mg/kg.

For `C[S+]([O-])c1cc2nc(C(=O)O)cn2c2ccccc12` (stereo not drawn), the ED50 (Rattus norvegicus [8]) was 0.29 mg/kg.

For `O=C(O)c1cn2c(ccc3c(Cl)cccc32)n1`, the ED50 (Rattus norvegicus [9]) was 3.74 mg/kg.

`CCCn1c(=O)c2nc(C(=O)OCC)cn2c2ccccc21` gave an ED50 (Rattus norvegicus [10]) of 1.21 mg/kg.

Compound `Cc1cc2sc3nc(C(=O)O)cn3c2cc1C` has an ED50 (Rattus norvegicus [11]) of 0.3 mg/kg.

`CCn1c(=O)c2cc(C(=O)O)nn2c2ccccc21` gave an ED50 (Rattus norvegicus [12]) of 0.11 mg/kg.

`O=Cc1cn2c(cc(Cl)c3ccc(Cl)cc32)n1` showed an ED50 (Rattus norvegicus [13]) of 0.5 mg/kg.

`Cl.Cl.NCc1cn2c(ccc3ccccc32)n1` showed an ED50 (Rattus norvegicus [14]) of 0.976 mg/kg.

`CC1(C)OCC(COC(=O)c2cn3c(ccc4ccccc43)n2)O1` (stereo not drawn) gave an ED50 (Rattus norvegicus [15]) of 1.7 mg/kg.

Compound `O=C(O)c1nnn2c1c(O)nc1ccccc12` has an ED50 (Rattus norvegicus [16]) of 0.084 mg/kg and an inhibition in vivo at 20 mg/kg (Rattus norvegicus [17]) of 45%.

In the case of `CS(=O)(=O)c1ccc2ccc3nc(C(=O)O)cn3c2c1`, the ED50 (Rattus norvegicus [18]) is reported as 0.028 mg/kg and the inhibition in vivo at 10 mg/kg (Rattus norvegicus [19]) is reported as 50%.

With `OCc1cn2c(n1)COc1ccccc1-2` the ED50 (Rattus norvegicus [20]) was 2.73 mg/kg.

Work on `CCn1c(=O)c2nc(CO)cn2c2ccccc21` yielded an ED50 (Rattus norvegicus [21]) of 0.071 mg/kg.

`CCCCCCc1cc([S+](C)(=N)[O-])cc2c(=O)c3cc(C(=O)O)ccc3oc12.NC(CO)(CO)CO` (stereo not drawn) gave an ED50 (Rattus norvegicus [22]) of 0.19 mg/kg and an ED50 (Rattus norvegicus [23]) of 5 µg/kg.

Compound `Clc1ccc2c(Cl)cc3nc(-c4nn[nH]n4)cn3c2c1` has an ED50 (Rattus norvegicus [24]) of 0.016 mg/kg and an ED50 (Rattus norvegicus [25]) of 0.5 mg/kg.

Compound `O=C(O)c1cn2c(n1)sc1ccccc12` has an ED50 (Rattus norvegicus [26]) of 0.33 mg/kg.

Compound `O=C(O)c1cn2c(ccc3ccccc32)n1` has an ED50 (Rattus norvegicus [27]) of 0.3 mg/kg and an ED50 (Rattus norvegicus [28]) of 0.34 mg/kg.

In the case of `COc1ccc2c(Cl)cc3nc(C(=O)O)cn3c2c1`, the ED50 (Rattus norvegicus [29]) is reported as 0.34 mg/kg and the ED50 (Rattus norvegicus [30]) is reported as 0.027 mg/kg.

`c1ccc2c(c1)ncc1nc(-c3nn[nH]n3)cn12` was tested, and the ED50 (Rattus norvegicus [31]) was 0.089 mg/kg and the ED50 (Rattus norvegicus [32]) was 0.012 mg/kg.

For `CCn1c(=O)c2cc(C=O)cn2c2ccccc21`, the ED50 (Rattus norvegicus [33]) was 2.53 mg/kg.

`O=C(OCC(O)CO)c1cn2c(ccc3ccccc32)n1` (stereo not drawn) was tested, and the Inhibition (Rattus norvegicus [34]) was 47%.

Compound `O=C(O)c1cc2c(=O)n(C3CCCC3)c3ccccc3n2c1` has an ED50 (Rattus norvegicus [35]) of 1.96 mg/kg and an ED50 (Rattus norvegicus [36]) of 0.037 mg/kg.

For `OCc1cn2c(cnc3ccccc32)n1`, the ED50 (Rattus norvegicus [37]) was 0.061 mg/kg and the ED50 (Rattus norvegicus [38]) was 0.156 mg/kg.
